Laboratory results published in patent publication US20110275798A1, “Method for Determination of Sirolimus Stability and Process for Preparing Its Stable Form” (priority 2009, published 2011).

Assay: Stability (degradation) of sirolimus solid forms
Assay type: physicochemical

stability (degradation) (amorphous form): degrades at a fast rate | stability (degradation) (crystalline form): substantially stable
Structure (SMILES): CO[C@H]1C[C@@H]2CC[C@@H](C)[C@@](O)(O2)C(=O)C(=O)N2CCCC[C@H]2C(=O)O[C@H]([C@H](C)C[C@@H]2CC[C@@H](O)[C@H](OC)C2)CC(=O)[C@H](C)/C=C(\C)[C@@H](O)[C@@H](OC)C(=O)[C@H](C)C[C@H](C)/C=C/C=C/C=C/1C [sirolimus]
